Assay results taken from US7115624B1, “Method of inhibiting protein tyrosine phosphatase 1B and/or T-cell protein tyrosine phosphatase 4 and/or other PTPases with an Asp residue at position 48” (Novo Nordisk A/S, priority 1999, dated 2006).
Read-outs that look alike come from different tables or passages of the source.

Tests used:
PTPβ = PTPβ (Homo sapiens, UniProt P23467); experiment: PTPase inhibition, p-nitrophenyl phosphate substrate, Ki; format: biochemical
Procedure: (§1) The assay conditions are as follows. Appropriate concentrations of the compounds of the invention (e.g., 0.1 to 100 μM) are added to the reaction mixtures containing different concentrations of the substrate, p-nitrophenyl phosphate (range: 0.16 to 10 mM—final assay concentration). The buffer used was 50 mM HEPES pH 7.0, 100 mM sodium chloride, 0.1% (w/v) bovine serum albumin, 5 mM glutathione, and 1 mM EDTA. The reaction was started by addition of the enzyme and carried out in microtiter plates at 25° C. for 60 minutes. The reactions are stopped by addition of NaOH. […] The data are analyzed using nonlinear regression fit to classical Michaelis Menten enzyme kinetic models. Inhibition is expressed as Ki values in μM.

SHP-1 = SHP-1 (Homo sapiens, UniProt P29350); experiment: biochemical
CD45 = biological target: T1, CD45 (Homo sapiens, UniProt P08575); experiment: PTPase inhibition, p-nitrophenyl phosphate substrate, Ki; format: biochemical; conditions: read-out: Ki values, CD45 D1D2
T1 sequence (P08575 599-1306 limits assumed): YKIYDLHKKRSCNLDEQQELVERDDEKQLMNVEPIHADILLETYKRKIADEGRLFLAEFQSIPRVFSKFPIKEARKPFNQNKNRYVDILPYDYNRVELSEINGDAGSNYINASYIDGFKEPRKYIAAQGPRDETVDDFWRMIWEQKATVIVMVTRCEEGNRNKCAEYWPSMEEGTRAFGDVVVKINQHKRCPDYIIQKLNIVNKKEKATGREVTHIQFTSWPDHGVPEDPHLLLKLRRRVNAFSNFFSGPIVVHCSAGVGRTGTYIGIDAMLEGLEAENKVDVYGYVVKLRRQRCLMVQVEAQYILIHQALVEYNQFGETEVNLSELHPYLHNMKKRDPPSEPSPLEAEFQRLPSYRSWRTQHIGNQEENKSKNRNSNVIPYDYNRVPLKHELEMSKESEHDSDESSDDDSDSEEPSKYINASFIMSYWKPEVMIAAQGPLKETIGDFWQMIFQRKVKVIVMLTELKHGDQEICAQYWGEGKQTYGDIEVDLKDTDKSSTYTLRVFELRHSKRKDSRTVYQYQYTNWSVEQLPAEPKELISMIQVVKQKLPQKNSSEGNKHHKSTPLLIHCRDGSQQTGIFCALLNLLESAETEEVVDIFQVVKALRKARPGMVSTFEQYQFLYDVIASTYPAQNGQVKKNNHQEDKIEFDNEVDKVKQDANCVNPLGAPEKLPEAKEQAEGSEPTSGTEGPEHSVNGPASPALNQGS

PTPα = biological target: T2, PTPα (Homo sapiens, UniProt P18433); experiment: as above; format: biochemical
T2 construct: PTPα D1

LAR = biological target: T3, LAR (Homo sapiens, UniProt P10586); experiment: as above; format: biochemical; conditions: pH 5.5; D1D2; read-out: Ki values, LAR D1D2
T3 sequence (P10586 1285-1907 limits assumed): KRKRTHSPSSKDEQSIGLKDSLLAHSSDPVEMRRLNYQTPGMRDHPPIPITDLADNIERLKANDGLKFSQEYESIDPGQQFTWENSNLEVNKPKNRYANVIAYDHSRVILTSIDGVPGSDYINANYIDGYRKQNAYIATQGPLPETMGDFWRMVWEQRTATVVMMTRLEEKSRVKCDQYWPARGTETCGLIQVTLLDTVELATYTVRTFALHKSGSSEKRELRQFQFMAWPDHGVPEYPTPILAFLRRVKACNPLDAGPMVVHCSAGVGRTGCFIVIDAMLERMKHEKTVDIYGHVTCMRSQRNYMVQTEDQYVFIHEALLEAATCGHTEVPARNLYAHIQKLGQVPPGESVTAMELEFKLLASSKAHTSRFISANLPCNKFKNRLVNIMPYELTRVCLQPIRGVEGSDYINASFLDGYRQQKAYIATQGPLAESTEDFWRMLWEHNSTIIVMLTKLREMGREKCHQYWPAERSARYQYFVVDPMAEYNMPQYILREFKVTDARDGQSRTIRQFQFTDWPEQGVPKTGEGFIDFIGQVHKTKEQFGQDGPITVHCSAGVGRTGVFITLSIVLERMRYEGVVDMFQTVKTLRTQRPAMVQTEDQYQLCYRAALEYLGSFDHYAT
Procedure: The compounds are evaluated for biological activity with a truncated form of PTP1B (corresponding to the first 321 amino acids), which was expressed in E. coli and purified to apparent homogeneity using published procedures well-known to those skilled in the art. The enzyme reactions are carried out using standard conditions essentially as described by Burke et al. (Biochemistry 35; 15989–15996 (1996)) incorporated by reference. […] Appropriate concentrations of the compounds of the invention (e.g., 0.1 to 100 μM) are added to the reaction mixtures containing different concentrations of the substrate, p-nitrophenyl phosphate (range: 0.16 to 10 mM—final assay concentration). The buffer used was 50 mM HEPES pH 7.0, 100 mM sodium chloride, 0.1% (w/v) bovine serum albumin, 5 mM glutathione, and 1 mM EDTA. The reaction was started by addition of the enzyme and carried out in microtiter plates at 25° C. for 60 minutes. The reactions are stopped by addition of NaOH. The enzyme activity was determined by measurement of the absorbance at 405 nm with appropriate corrections for absorbance at 405 nm of the compounds and p-nitrophenyl phosphate. The data are analyzed using nonlinear regression fit to classical Michaelis Menten enzyme kinetic models. Inhibition is expressed as Ki values in μM.

PTPε = biological target: T4, PTPε (Homo sapiens, UniProt P23469); experiment: as above; format: biochemical
T4 construct: PTPε D1
Procedure: as §1

PTP1B = biological target: T5, PTP1B (Homo sapiens, UniProt P18031); experiment: as above; format: biochemical
T5 sequence (P18031 1-321): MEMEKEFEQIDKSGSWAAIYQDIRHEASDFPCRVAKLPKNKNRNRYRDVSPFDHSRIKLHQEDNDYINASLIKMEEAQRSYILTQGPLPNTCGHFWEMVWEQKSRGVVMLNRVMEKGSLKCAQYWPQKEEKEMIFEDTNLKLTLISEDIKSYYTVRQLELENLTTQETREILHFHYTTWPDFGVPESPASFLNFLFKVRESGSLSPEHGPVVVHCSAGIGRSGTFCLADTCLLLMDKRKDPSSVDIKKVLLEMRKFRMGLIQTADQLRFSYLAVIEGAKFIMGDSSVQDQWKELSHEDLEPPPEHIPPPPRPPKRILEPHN
Procedure: as §1

[1] = pKa of the tetrahydropyridine ring; format: physicochemical; conditions: positively charged tetrahydropyridine ring
[2] = pH 5.5, read-out: Ki values, PTPβ
[3] = pH 5.5, D1, read-out: Ki values, PTPα D1
[4] = pH 5.5, D1, read-out: Ki values, PTPε D1
[5] = pH 5.5, read-out: Ki values, PTP1B
[6] = pH 7, D1 (Table 3), read-out: Ki values, PTPα D1
[7] = pH 7 (Table 3), read-out: Ki values, PTPβ
[8] = pH 7, D1 (Table 3), read-out: Ki values, PTPε D1
[9] = pH 7 (Table 6), read-out: Ki, PTP β residue 48 Asn
[10] = pH 7 (Table 6), read-out: Ki, PTP α residue 48 Asn
[11] = pH 7 (Table 6), read-out: Ki, PTP1B residue 48 Asp
[12] = pH 7 (Table 6), read-out: Ki, PTP ε residue 48 Asn

Chain of SHP-1 (P29350 whole entry): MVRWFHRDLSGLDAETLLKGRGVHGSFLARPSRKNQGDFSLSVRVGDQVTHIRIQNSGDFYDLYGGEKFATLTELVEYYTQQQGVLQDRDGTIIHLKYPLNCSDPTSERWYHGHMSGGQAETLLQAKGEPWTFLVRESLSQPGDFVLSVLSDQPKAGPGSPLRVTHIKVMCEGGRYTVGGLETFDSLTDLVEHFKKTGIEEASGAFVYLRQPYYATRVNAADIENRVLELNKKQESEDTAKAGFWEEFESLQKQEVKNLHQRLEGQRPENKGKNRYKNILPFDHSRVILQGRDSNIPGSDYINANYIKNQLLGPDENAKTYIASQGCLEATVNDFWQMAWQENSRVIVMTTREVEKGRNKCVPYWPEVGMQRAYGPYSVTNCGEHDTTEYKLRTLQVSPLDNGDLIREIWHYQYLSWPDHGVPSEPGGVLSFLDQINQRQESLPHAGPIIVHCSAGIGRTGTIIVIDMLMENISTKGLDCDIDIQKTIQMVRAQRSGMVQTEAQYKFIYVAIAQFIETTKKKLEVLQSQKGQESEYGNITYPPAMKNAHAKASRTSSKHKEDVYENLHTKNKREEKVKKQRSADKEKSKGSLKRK
Chain of PTPβ (P23467 1703-1963 limits assumed): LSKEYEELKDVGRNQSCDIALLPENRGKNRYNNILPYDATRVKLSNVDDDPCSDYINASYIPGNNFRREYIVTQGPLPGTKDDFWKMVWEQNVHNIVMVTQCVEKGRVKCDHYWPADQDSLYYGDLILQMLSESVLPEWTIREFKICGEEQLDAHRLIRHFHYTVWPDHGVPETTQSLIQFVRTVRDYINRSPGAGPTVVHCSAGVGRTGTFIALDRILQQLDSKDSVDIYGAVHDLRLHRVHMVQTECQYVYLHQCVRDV
T4 sequence (P23469 135-394 limits assumed): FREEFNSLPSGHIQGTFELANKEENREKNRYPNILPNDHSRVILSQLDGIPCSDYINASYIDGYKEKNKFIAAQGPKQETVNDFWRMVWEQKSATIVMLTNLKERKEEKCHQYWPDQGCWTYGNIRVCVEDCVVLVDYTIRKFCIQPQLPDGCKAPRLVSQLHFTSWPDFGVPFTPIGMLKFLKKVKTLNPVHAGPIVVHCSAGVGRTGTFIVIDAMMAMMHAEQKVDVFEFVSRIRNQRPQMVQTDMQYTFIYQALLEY
T2 sequence (P18433 241-501 limits assumed): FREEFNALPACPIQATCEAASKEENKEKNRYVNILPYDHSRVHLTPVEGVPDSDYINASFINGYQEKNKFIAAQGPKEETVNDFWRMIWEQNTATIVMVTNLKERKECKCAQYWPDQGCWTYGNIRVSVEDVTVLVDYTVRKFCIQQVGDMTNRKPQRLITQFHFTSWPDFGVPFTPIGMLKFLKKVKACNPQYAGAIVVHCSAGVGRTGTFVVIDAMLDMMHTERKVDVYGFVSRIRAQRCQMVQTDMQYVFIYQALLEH

Ki (PTPβ; [2]) [µM]	Ki (SHP-1) [µM]	Ki (CD45; pH 5.5, D1D2) [µM]	Ki (PTPα; [3]) [µM]	Ki (LAR) [µM]	Ki (PTPε; [4]) [µM]	Ki (PTPβ; [9]) [µM]	Ki (PTP1B; [11]) [µM]	SMILES	other results
						47	0.25	CCOC(=O)N1Cc2sc(NC(=O)C(=O)O)c(C(=O)O)c2CC1CN1C(=O)c2ccccc2C1=O (centres unmarked) [Example 48, 5-(1,3-Dioxo-1,3-dihydro-isoindol-2-ylmethyl)-2-(oxalyl-amino)-4,5,6,7-tetrahydro-thieno[2,3-c]pyridine-3,6-dicarboxylic acid 6-ethyl ester]	Ki (PTPα; [10]): 900 µM; Ki (PTPε; [12]): 380 µM
						8.6	0.085	O=C(O)C(=O)Nc1sc2c(c1C(=O)O)CC(CN1C(=O)c3ccccc3C1=O)NC2 (centres unmarked) [Example 49, 5-(1,3-Dioxo-1,3-dihydro-isoindol-2-ylmethyl)-2-(oxalyl-amino)-4,5,6,7-tetrahydro-thieno[2,3-c]pyridine-3-carboxylic acid]	
						8	0.07	O=C(O)C(=O)Nc1sc2c(c1C(=O)O)C[C@@H](CN1C(=O)c3ccccc3C1=O)NC2 [Example 50, (L)-5-(1,3-Dioxo-1,3-dihydro-isoindol-2-ylmethyl)-2-(oxalyl-amino)-4,5,6,7-tetrahydro-thieno[2,3-c]pyridine-3-carboxylic acid]	Ki (PTPα; [10]): 1000 µM
						107	1.2	O=C(O)C(=O)Nc1sc2c(c1C(=O)O)CC(CN1C(=O)c3cccc(O)c3C1=O)NC2 (centres unmarked) [Example 52, 5-(4-Hydroxy-1,3-dioxo-1,3-dihydro-isoindol-2-ylmethyl)-2-(oxalyl-amino)-4,5,6,7-tetrahydro-thieno[2,3-c]pyridine-3-carboxylic acid]	Ki (PTPα; [10]): > 400 µM; fold increase of affinity for PTP1B compared to 2-OTPyA (PTP1B): about 13 fold; Ki (PTPε; [12]): > 500 µM
32	530	160	700	> 2000	125			O=C(O)C(=O)Nc1ccccc1C(=O)O [OBA, 2-(oxalyl-amino)-benzoic acid]	

Further lines, the molecule ahead of its results:

SMILES	Ki (PTPβ; [2]) [µM]	Ki (SHP-1) [µM]	Ki (CD45; pH 5.5, D1D2) [µM]	Ki (PTPα; [3]) [µM]	Ki (LAR) [µM]	Ki (PTPε; [4]) [µM]	Ki (PTPβ; [9]) [µM]	Ki (PTP1B; [11]) [µM]	other results
O=C(O)C(=O)Nc1sc2c(c1C(=O)O)CCCC2 [Example 2-OBTA]	14	120	40	300	400	45			
O=C(O)C(=O)Nc1sccc1C(=O)O [Example 2-OTA, 2-(oxalyl-amino)-thiophene-3-carboxylic acid]	18	60	70	1700	> 2000	590			Ki (PTP1B; [5]): 62 µM
O=C(O)C(=O)Nc1sc2c(c1C(=O)O)CCOC2 [Example 2-OTPA, 2-(Oxalyl-amino)-4,7-dihydro-thieno[2,3-c]pyran-3-carboxylic acid]				270					Ki (PTPα; [6]): 1100 µM
O=C(O)C(=O)Nc1sc2c(c1C(=O)O)CCNC2 [Example 2-OTPyA, 2-(Oxalyl-amino)-4,5,6,7-tetrahydro-thieno[2,3-c]pyridine-3-carboxylic acid]	150	900	110	> 2000	> 2000	600			pKa [1]: > 10; Ki (PTP1B; [5]): 0.3 µM
O=C(O)C(=O)Nc1ccsc1C(=O)O [Example 3-OTA, 3-(oxalyl-amino)-thiophene-2-carboxylic acid]	160	> 2000	250	500	> 2000	350			Ki (PTP1B; [5]): 61 µM
O=C(O)C(=O)Nc1sc2c(c1C(=O)O)CC(CN1C(=O)c3cccc(O)c3C1=O)OC2 (centres unmarked) [Example 4, 5-(4-Hydroxy-1,3-dioxo-1,3-dihydro-isoindol-2-ylmethyl)-2-(oxalyl-amino)-4,7-dihydro-5H-thieno[2,3-c]pyran-3-carboxylic acid]									Ki (PTPβ; [7]): 1.1 µM; Ki (CD45; pH 7, D1D2 (Table 3)): 130 µM; Ki (PTPα; [6]): 93 µM; Ki (PTP1B; pH 7 (Table 3), read-out: Ki values, PTP1B): 1.9 µM; Ki (PTPε; [8]): 11 µM
COc1ccc2c(c1)C(=O)N(CC1OCCc3c1sc(NC(=O)C(=O)O)c3C(=O)O)C2=O (centres unmarked) [Example 26, 7-(5-Methoxy-1,3-dioxo-1,3-dihydro-isoindol-2-ylmethyl)-2-(oxalyl-amino)-4,7-dihydro-5H-thieno[2,3-c]pyran-3-carboxylic-acid]									Ki (PTPβ; [7]): 8.9 µM; Ki (CD45; pH 7, D1D2 (Table 3)): 380 µM; Ki (PTPα; [6]): 620 µM; Ki (PTPε; [8]): 330 µM
